In patent publication US20210084904A1, “SUCCINATE DEHYDROGENASE INHIBITORS AND SULFUR-CONTAINING COMPOUNDS MIXTURES AND METHODS OF USE THEREOF” (University of Georgia Research Foundation, Inc., priority 2019, published 2021):

Test system: Cercosporidium personatum
Assay: Greenhouse test: efficacy on peanut late leaf spot, foliar spray
Assay type: in vivo
Conditions: leaves sprayed, infected peanut plants
Experimental: The following greenhouse test was conducted Sep. 14, 2019. Peanut plants (Arachis hypogaea) were used in the test as the crop plant. The peanut plants were infected Cercosporidium personatum.
Leaves were sprayed with inpyfluxam, chlorothalonil, benzovindiflupyr, prothioconazole, and/or sulfur at the rates disclosed in Table 1. All data was analyzed for significance.

inpyrfluxam
% Control (application rate 2.0 ounces/acre): 32.5b %
% Control (application rate 3.0 ounces/acre): 31.3bc %
% Control (application rate 4.0 ounces/acre): 30.0bc %

OC(Cc1ccccc1Cl)(Cn1nc[nH]c1=S)C1(Cl)CC1 (centres unmarked) [Prothioconazole, prothioconazole]
% Control (application rate 7.0 ounces/acre): 10.0d %

N#Cc1c(Cl)c(Cl)c(Cl)c(C#N)c1Cl [Chlorothalonil, chlorothalonil]
% Control (application rate 24.0 ounces/acre): 27.5c %
